# Test results: patent US20220273624A1, “NOVEL ANTIVIRAL THERAPIES” (NIKLOVIR AB, priority 2019, published 2022)
# Like-named read-outs stand apart in the source and are kept apart here.
# Assays:
# Ljungan-like virus = experiment: Immunohistochemistry for LV VP1 antigen in pancreas tissue of treated DP-BB rats (Example 1); assay type: in vivo, rat; details: for Non-infected (number of animals, viral antigen in pancreas by IHC) / Infected (number of animals, viral antigen in pancreas by IHC): Pleconaril 100 mg/kg, Efavirenz 30 mg/kg daily from 45 to 60 days of age; for Non-infected (number of animals, viral antigen in pancreas by IHC): control 0 of 9 non-infected; for Infected (number of animals, viral antigen in pancreas by IHC): control 9 of 9 infected; for effect on clearing the infection (in words): pancreas tissue following treatment
# Method: DP-BB rats were obtained from the breeding colony maintained at the Karolinska Institute (Solna, Sweden). The animals were housed under Specific Pathogen Free conditions in a temperature- and humidity-controlled room with 12 hour light dark cycles. They were fed R36 diet and water ad libitum. Animals of both genders were used. The overall incidence of diabetes among the DP rats used in the colony study is 100% with 60 days as the mean age of onset.
# Antiviral agents (pleconaril and efavirenz) were administered to the animals in a dose of 100 mg/kg and 30 mg/kg body weight for Pleconaril and Efavirenz, respectively. Treatment was given daily using formulation containing the vehicle 0.4% (v/v) Tween 80+2% (v/v) glycerol+15% (w/v) Hydroxypropyl-beta-cyclodextrin.
# Four experimental treatment groups consisted of six rats given pleconaril, six given Efavirenz, eight given a combination of both compounds, and nine given the vehicle solution and serving as a control. All four groups began treatment at 45 days of age and treatment was maintained until 60 days of age when animals were sacrificed.
# Formalin fixed paraffin embedded pancreas tissue were analyzed by immunohistochemistry. The tissues were fixed in 4% formalin and embedded in paraffin as described previously with minor modifications (Shi et al., 1991), (Shi, 1997). Presence of LV specific antigen was visualized using a polyclonal recombinant LV VP1 raised in rabbits (Tolf, 2008). As control we used serum from a rabbit immunized using the same protocol but with the carrier GST protein only. Tissues from LV-infected and non-infected animals were included as controls. The specificity of the rabbit antibodies were verified by analyzing control specimens generated by mixing infected tissue culture cells with non-infected cells followed by formalin fixation and paraffin imbedding. The specificity of the reaction was also confirmed by blocking the signal with LV antigen in parallel with control antigen.
# Pancreas tissue was also analysed using the PCR assay described by Donoso Mantke and co-workers (Donoso Mantke et al., 2007).
# DP BB rats = details: group B, Pleconaril alone 100 mg/kg BW once daily for 30 days, previously reported (Niklasson et al., 2016), control 59 (7), cited from earlier work
SMILES,"Non-infected (number of animals, viral antigen in pancreas by IHC) (Ljungan-like virus)","Infected (number of animals, viral antigen in pancreas by IHC) (Ljungan-like virus)",effect on clearing the infection (in words) (Ljungan-like virus),Mean diab onset day (SD) (DP BB rats; listed as Plec),Mean diab onset day (SD) (DP BB rats)
"O=C1Nc2ccc(Cl)cc2[C@@](C#CC2CC2)(C(F)(F)F)O1 [Efavirenz, (4S)-6-chloro-4-(2-cyclopropylethynyl)-4-(trifluoromethyl)-1H-3,1-benz-oxazin-2-one]",0,6,essentially no effect,,
"Cc1cc(CCCOc2c(C)cc(-c3noc(C(F)(F)F)n3)cc2C)on1 [Pleconaril, 3-[3,5-dimethyl-4-[3-(3-methylisoxazol-5-yl)propoxy]phenyl]-5-(trifluoro-methyl)-1,2,4-oxadiazole]",2,4,only a modest effect on clearing the infection,62 (8) day,62 (SD 8) day
